The source made the active and inactive calls.
What was measured:
Midasin = Midasin (Homo sapiens, UniProt Q9NU22)
[1] = target: T1, Electron transfer flavoprotein subunit beta (Homo sapiens, UniProt P38117)
T1 sequence (P38117 whole entry): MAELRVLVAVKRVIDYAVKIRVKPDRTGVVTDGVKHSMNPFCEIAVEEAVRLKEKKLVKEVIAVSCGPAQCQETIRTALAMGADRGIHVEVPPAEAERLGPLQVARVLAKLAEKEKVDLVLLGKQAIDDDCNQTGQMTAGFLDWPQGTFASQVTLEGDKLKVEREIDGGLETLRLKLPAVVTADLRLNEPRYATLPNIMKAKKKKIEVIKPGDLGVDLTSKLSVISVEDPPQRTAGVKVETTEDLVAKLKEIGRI

[2] = target: Cyclin-dependent kinase 4 (Homo sapiens, UniProt P11802)
[3] = target: Casein kinase I isoform gamma-1 (Homo sapiens, UniProt Q9HCP0)
[4] = target: cAMP-dependent protein kinase catalytic subunit beta (Homo sapiens, UniProt P22694)
[5] = target: T2, Phosphorylase b kinase gamma catalytic chain, liver/testis isoform (Homo sapiens, UniProt P15735)
T2 sequence (P15735 whole entry): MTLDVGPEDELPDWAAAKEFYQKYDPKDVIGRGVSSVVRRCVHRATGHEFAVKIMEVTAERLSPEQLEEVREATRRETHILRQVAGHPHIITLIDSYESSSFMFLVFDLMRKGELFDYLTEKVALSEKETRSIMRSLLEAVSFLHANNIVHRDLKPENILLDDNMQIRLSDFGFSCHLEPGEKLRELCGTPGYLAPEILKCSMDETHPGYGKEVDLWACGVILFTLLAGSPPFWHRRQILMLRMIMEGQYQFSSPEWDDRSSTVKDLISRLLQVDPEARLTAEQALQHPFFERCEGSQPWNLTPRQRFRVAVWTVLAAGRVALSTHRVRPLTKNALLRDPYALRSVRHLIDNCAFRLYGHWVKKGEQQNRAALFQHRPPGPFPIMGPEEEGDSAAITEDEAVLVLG

[6] = target: T3, Beta-adrenergic receptor kinase 1 (Homo sapiens, UniProt P25098)
T3 sequence (P25098 whole entry): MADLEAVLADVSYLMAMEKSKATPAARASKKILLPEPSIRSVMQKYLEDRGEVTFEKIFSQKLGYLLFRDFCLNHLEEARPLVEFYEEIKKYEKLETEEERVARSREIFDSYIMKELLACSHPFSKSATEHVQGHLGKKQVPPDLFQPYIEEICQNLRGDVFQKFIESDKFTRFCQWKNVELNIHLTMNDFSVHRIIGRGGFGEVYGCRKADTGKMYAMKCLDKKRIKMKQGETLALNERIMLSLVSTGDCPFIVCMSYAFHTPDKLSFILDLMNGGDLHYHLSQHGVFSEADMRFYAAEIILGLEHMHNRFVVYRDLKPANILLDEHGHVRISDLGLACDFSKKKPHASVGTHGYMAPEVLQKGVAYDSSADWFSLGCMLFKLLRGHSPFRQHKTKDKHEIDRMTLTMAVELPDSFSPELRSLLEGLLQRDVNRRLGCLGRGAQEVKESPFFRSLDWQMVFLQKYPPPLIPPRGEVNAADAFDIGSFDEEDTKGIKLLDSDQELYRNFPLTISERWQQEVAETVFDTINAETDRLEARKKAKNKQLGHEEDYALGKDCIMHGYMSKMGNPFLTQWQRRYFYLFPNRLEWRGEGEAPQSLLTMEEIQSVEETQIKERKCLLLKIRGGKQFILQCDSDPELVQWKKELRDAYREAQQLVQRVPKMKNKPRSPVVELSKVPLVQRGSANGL

[7] = target: Serine/threonine-protein kinase 10 (Homo sapiens, UniProt O94804)
Actin-related protein 2 = Actin-related protein 2 (Homo sapiens, UniProt P61160)
[8] = target: T4, Phosphatidylinositol 5-phosphate 4-kinase type-2 alpha (Homo sapiens, UniProt P48426)
T4 sequence (P48426 whole entry): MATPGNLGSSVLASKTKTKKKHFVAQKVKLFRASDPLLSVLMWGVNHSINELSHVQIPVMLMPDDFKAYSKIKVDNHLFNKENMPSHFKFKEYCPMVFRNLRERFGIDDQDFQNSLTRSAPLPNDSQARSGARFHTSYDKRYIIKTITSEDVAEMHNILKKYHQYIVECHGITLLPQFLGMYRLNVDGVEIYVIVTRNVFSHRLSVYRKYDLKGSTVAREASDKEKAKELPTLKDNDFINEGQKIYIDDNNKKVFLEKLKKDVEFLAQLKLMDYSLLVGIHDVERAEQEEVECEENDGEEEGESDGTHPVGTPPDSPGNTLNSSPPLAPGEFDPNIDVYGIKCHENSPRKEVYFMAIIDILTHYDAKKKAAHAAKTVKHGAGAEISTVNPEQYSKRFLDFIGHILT
Note: in the data inactive means no Kd found up to 30 µM.

Sequence of Cyclin-dependent kinase 4 (P11802 whole entry, canonical isoform): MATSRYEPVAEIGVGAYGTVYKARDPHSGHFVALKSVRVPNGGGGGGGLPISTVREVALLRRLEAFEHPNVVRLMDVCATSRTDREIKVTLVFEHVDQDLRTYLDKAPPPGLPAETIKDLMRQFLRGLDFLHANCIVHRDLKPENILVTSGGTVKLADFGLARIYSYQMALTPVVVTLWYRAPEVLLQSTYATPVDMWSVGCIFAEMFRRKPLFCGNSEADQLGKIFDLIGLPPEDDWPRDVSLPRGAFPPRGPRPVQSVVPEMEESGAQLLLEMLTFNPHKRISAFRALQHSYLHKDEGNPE
Sequence of Casein kinase I isoform gamma-1 (Q9HCP0 whole entry, canonical isoform): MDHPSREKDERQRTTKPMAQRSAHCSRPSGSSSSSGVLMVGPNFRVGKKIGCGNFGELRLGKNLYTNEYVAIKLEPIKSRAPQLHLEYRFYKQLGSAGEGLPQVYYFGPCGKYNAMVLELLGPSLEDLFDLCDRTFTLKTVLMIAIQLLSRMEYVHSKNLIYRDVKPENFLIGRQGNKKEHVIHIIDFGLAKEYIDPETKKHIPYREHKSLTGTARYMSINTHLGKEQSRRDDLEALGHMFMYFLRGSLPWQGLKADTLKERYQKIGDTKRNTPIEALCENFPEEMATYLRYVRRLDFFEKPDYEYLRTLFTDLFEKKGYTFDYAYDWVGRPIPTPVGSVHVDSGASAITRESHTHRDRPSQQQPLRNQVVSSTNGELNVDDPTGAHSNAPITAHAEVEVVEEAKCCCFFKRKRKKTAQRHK
Sequence of Serine/threonine-protein kinase 10 (O94804 whole entry): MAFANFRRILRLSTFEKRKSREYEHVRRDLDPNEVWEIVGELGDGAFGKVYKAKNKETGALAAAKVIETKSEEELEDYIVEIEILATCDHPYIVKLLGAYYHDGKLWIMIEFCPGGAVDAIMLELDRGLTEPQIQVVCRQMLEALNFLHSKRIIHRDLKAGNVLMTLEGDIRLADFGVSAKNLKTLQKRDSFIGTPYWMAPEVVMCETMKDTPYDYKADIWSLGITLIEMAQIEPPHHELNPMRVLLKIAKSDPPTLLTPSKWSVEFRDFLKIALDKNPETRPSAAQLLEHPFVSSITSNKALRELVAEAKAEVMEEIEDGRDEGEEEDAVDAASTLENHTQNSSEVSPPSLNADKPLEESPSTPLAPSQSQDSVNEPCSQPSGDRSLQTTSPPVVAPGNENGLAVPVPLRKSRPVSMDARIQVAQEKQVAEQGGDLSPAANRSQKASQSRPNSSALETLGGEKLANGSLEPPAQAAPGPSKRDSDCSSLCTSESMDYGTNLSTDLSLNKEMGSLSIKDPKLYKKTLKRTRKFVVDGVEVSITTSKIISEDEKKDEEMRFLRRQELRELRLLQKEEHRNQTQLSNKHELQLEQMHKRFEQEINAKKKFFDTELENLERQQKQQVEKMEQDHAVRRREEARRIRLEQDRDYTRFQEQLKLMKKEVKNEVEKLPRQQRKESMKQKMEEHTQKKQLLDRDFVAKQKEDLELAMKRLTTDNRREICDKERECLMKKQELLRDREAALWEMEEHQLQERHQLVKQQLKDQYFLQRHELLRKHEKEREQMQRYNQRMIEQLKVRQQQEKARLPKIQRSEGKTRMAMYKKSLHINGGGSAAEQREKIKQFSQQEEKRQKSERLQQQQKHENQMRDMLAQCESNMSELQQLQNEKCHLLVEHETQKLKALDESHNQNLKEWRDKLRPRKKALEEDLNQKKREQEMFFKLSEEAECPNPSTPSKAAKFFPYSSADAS

SMILES | Kd (Midasin) | Kd [1] | Kd [2] | Kd [3] | Kd [4] | Kd [5] | Kd [6] | Kd [7] | Kd (Actin-related protein 2) | Kd [8]
COc1cc2ncnc3c2cc1OCCCCCN(C)Cc1ccc(Br)cc1N3 [JNJ-26483327] | > 30 µM (inactive) | > 30 µM (inactive) | > 30 µM (inactive) | > 30 µM (inactive) | > 30 µM (inactive) | > 30 µM (inactive) | > 30 µM (inactive) | 45.1 µM (active) | – | –
C#Cc1cccc(Nc2ncnc3cc4c(cc23)OCCOCCOCCO4)c1 [ICOTINIB] | > 30 µM (inactive) | > 30 µM (inactive) | > 30 µM (inactive) | > 30 µM (inactive) | > 30 µM (inactive) | > 30 µM (inactive) | > 30 µM (inactive) | 0.227 µM (active) | > 30 µM (inactive) | –
Cc1cc(C(=O)Nc2cc(Oc3ccc4nc(NC(=O)C5CC5)cn4n3)ccc2C)n(C)n1 [TAK-593] | > 30 µM (inactive) | – | > 30 µM (inactive) | > 30 µM (inactive) | > 30 µM (inactive) | > 30 µM (inactive) | > 30 µM (inactive) | > 30 µM (inactive) | > 30 µM (inactive) | > 30 µM (inactive)
O=C(O)c1ccc2c(c1)nc(Nc1cccc(Cl)c1)c1ccncc12 [SILMITASERTIB] | > 30 µM (inactive) | > 30 µM (inactive) | > 30 µM (inactive) | > 30 µM (inactive) | > 30 µM (inactive) | 3.5 µM (active) | > 30 µM (inactive) | 0.096 µM (active) | > 30 µM (inactive) | –
O[C@H]1CC[C@H](Nc2ncc3nc(Nc4c(F)cc(F)cc4F)n([C@H]4CCOC4)c3n2)CC1 [TANZISERTIB] | > 30 µM (inactive) | – | > 30 µM (inactive) | > 30 µM (inactive) | > 30 µM (inactive) | > 30 µM (inactive) | > 30 µM (inactive) | > 30 µM (inactive) | > 30 µM (inactive) | > 30 µM (inactive)
CN1CCN(c2nc(C3=C(c4c[nH]c5ccccc45)C(=O)NC3=O)c3ccccc3n2)CC1 [SOTRASTAURIN] | > 30 µM (inactive) | – | > 30 µM (inactive) | > 30 µM (inactive) | > 30 µM (inactive) | > 30 µM (inactive) | > 30 µM (inactive) | > 30 µM (inactive) | > 30 µM (inactive) | –
CNC(=O)c1cc(COc2nnc(Nc3ccc(Cl)cc3)c3ccoc23)ccn1 [TELATINIB] | – | > 30 µM (inactive) | > 30 µM (inactive) | > 30 µM (inactive) | > 30 µM (inactive) | > 30 µM (inactive) | > 30 µM (inactive) | > 30 µM (inactive) | > 30 µM (inactive) | –
CNC(=O)c1ccc(Nc2ncc(C(F)(F)F)c(NCc3nccnc3N(C)S(C)(=O)=O)n2)cc1 [DEFACTINIB] | > 30 µM (inactive) | – | > 30 µM (inactive) | > 30 µM (inactive) | > 30 µM (inactive) | > 30 µM (inactive) | > 30 µM (inactive) | > 30 µM (inactive) | – | > 30 µM (inactive)
CC(C)(O)CC(=O)NCCn1ccc2ncnc(Nc3ccc(Oc4cccc(C(F)(F)F)c4)c(Cl)c3)c21 [TAK-285] | > 30 µM (inactive) | – | > 30 µM (inactive) | > 30 µM (inactive) | > 30 µM (inactive) | > 30 µM (inactive) | > 30 µM (inactive) | > 30 µM (inactive) | > 30 µM (inactive) | –
CC(C)CC(=O)Nc1[nH]nc2c1CN(C(=O)C1CCN(C)CC1)C2(C)C [PHA-793887] | > 30 µM (inactive) | > 30 µM (inactive) | > 30 µM (inactive) | – | > 30 µM (inactive) | 1 µM (active) | > 30 µM (inactive) | > 30 µM (inactive) | > 30 µM (inactive) | –
C=CCn1c(=O)c2cnc(Nc3ccc(N4CCN(C)CC4)cc3)nc2n1-c1cccc(C(C)(C)O)n1 [ADAVOSERTIB] | > 30 µM (inactive) | > 30 µM (inactive) | > 30 µM (inactive) | > 30 µM (inactive) | > 30 µM (inactive) | > 30 µM (inactive) | > 30 µM (inactive) | > 30 µM (inactive) | > 30 µM (inactive) | –
O=c1[nH]c([C@@H]2CCCN2)nc2c1oc1ccc(Cl)cc12 | > 30 µM (inactive) | – | > 30 µM (inactive) | > 30 µM (inactive) | > 30 µM (inactive) | > 30 µM (inactive) | > 30 µM (inactive) | > 30 µM (inactive) | > 30 µM (inactive) | > 30 µM (inactive)
CCN1CCN(Cc2ccc(Nc3ncc(F)c(-c4cc(F)c5nc(C)n(C(C)C)c5c4)n3)nc2)CC1 [ABEMACICLIB] | > 30 µM (inactive) | – | – | > 30 µM (inactive) | > 30 µM (inactive) | > 30 µM (inactive) | > 30 µM (inactive) | 2.47 µM (active) | > 30 µM (inactive) | > 30 µM (inactive)
COc1cccc(Nc2ncnn3ccc(CN4CC[C@@H](N)[C@H](O)C4)c23)c1 [BMS-690514] | > 30 µM (inactive) | – | > 30 µM (inactive) | > 30 µM (inactive) | 1.21 µM (active) | 4.62 µM (active) | > 30 µM (inactive) | 1.28 µM (active) | > 30 µM (inactive) | > 30 µM (inactive)
C=CC(=O)Nc1cccc(Nc2nc(Nc3ccc(N4CCN(C(C)=O)CC4)cc3OC)ncc2C(F)(F)F)c1 [ROCILETINIB] | > 30 µM (inactive) | > 30 µM (inactive) | > 30 µM (inactive) | > 30 µM (inactive) | – | > 30 µM (inactive) | > 30 µM (inactive) | > 30 µM (inactive) | > 30 µM (inactive) | –
O=C(NC[C@H](O)CO)c1ccncc1Nc1ccc(I)cc1F [PIMASERTIB] | > 30 µM (inactive) | > 30 µM (inactive) | > 30 µM (inactive) | > 30 µM (inactive) | > 30 µM (inactive) | > 30 µM (inactive) | > 30 µM (inactive) | > 30 µM (inactive) | > 30 µM (inactive) | –
C=CCN(/C=C1/C(=O)O[C@H](COC)[C@@]2(C)C1=C(O)C(=O)C1=C2[C@H](OC(C)=O)C[C@]2(C)C(=O)CC[C@@H]12)CC=C [SONOLISIB] | > 30 µM (inactive) | – | > 30 µM (inactive) | > 30 µM (inactive) | > 30 µM (inactive) | > 30 µM (inactive) | > 30 µM (inactive) | > 30 µM (inactive) | – | –
Cc1c(NC(=O)OC[C@@H]2COCCN2)cn2ncnc(Nc3ccc4c(cnn4Cc4cccc(F)c4)c3)c12 [AC-480] | > 30 µM (inactive) | > 30 µM (inactive) | > 30 µM (inactive) | > 30 µM (inactive) | > 30 µM (inactive) | > 30 µM (inactive) | > 30 µM (inactive) | > 30 µM (inactive) | > 30 µM (inactive) | –
COc1ccc(-c2ccc3ncc4c(c3c2)n(-c2ccc(N3CCNCC3)c(C(F)(F)F)c2)c(=O)n4C)cn1 [BGT-226 FREE BASE] | > 30 µM (inactive) | > 30 µM (inactive) | > 30 µM (inactive) | – | > 30 µM (inactive) | > 30 µM (inactive) | > 30 µM (inactive) | > 30 µM (inactive) | > 30 µM (inactive) | –

Reference: ChEMBL document CHEMBL3991601, “The target landscape of clinical kinase drugs” (Science, 2017)
